# Experimental data taken from the supplement of paper PMC10307832.
# Legend:
# Assay in all cases: relative viability (nuclei count vs DMSO), 5 days (fraction); higher = more cells survive
# Bicalutamide + Dasatinib = compound: CC(O)(CS(=O)(=O)c1ccc(F)cc1)C(=O)Nc1ccc(C#N)c(C(F)(F)F)c1 [Bicalutamide] + Cc1nc(Nc2ncc(C(=O)Nc3c(C)cccc3Cl)s2)cc(N2CCN(CCO)CC2)n1 [Dasatinib] (partner 0.075 µM)
# Procedure, shortened: (§1)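 Nuclei were stained with Hoechst during a one-step fixation (final 0.05% Triton X-100, 1% formaldehyde, 1 ug/ml Hoechst) carried out 5 days after dosing, then counted on 4× images. The cells, lung cancer lines in 1536-well plates, had been dosed by pin tool the day after seeding with one drug alone or a fixed anchor-drug dose plus five library-drug doses (not always all listed) in √10 steps. Relative viability is the nuclei count in treated wells divided by that in vehicle wells, and each value is the median of duplicate plates.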
# [1] = compound: CC(O)(CS(=O)(=O)c1ccc(F)cc1)C(=O)Nc1ccc(C#N)c(C(F)(F)F)c1 [Bicalutamide] + CCNC(=O)c1noc(-c2cc(C(C)C)c(O)cc2O)c1-c1ccc(CN2CCOCC2)cc1 [Luminespib] (partner 0.01 µM)
# Procedure, shortened: as §1
# [2] = compound: C(C(=O)C(=O)O)Br [Bromopyruvate] + Nc1ncn([C@H]2C[C@H](O)[C@@H](CO)O2)c(=O)n1 [Decitabine] (partner 2 µM)
# Procedure, shortened: as §1
# [3] = compound: C(C(=O)C(=O)O)Br [Bromopyruvate] + CC(C)C[C@H](NC(=O)[C@H](Cc1ccccc1)NC(=O)c1cnccn1)B(O)O [Bortezomib] (partner 0.002 µM)
# Procedure, shortened: as §1
Cell Line,relative viability (Bicalutamide + Dasatinib; first compound 0.08 µM),relative viability (Bicalutamide + Dasatinib; first compound 0.253 µM),relative viability (Bicalutamide + Dasatinib; first compound 0.8 µM),relative viability (Bicalutamide + Dasatinib; first compound 2.53 µM),relative viability ([1]; first compound 0.08 µM),relative viability ([1]; first compound 0.253 µM),relative viability ([1]; first compound 0.8 µM),relative viability ([1]; first compound 2.53 µM),relative viability ([2]; first compound 1 µM),relative viability ([2]; first compound 3.162 µM),relative viability ([2]; first compound 10 µM),relative viability ([2]; first compound 31.62 µM),relative viability ([2]; first compound 100 µM),relative viability ([3]; first compound 1 µM),relative viability ([3]; first compound 3.162 µM),relative viability ([3]; first compound 10 µM),relative viability ([3]; first compound 31.62 µM),relative viability ([3]; first compound 100 µM)
NCI-H1395,0.406,0.404,0.414,0.353,0.726,0.774,0.854,0.621,0.754,0.717,0.751,0.707,0.707,,,,,
NCI-H1563,0.449,0.456,0.512,0.409,0.529,0.552,0.567,0.515,,,,,,0.859,0.925,0.868,0.789,0.943
NCI-H1623,,0.524,0.562,0.54,,0.647,0.596,0.459,,,,,,,,,,
NCI-H1648,,,,,,,,,0.465,0.572,0.454,0.511,0.491,,,,,
NCI-H1703,,,,,,,,,,,,,,0.369,0.244,0.366,0.315,0.543
NCI-H1793,0.369,0.349,0.486,0.377,0.198,0.364,0.203,0.165,0.535,0.472,0.697,0.393,0.516,,,,,
NCI-H1944,0.233,0.203,0.216,0.208,0.759,0.66,0.845,0.779,0.419,0.423,0.503,0.39,0.44,,,,,
NCI-H2170,0.532,0.497,0.584,0.563,0.689,0.527,0.588,0.591,0.471,0.464,0.424,0.44,0.438,,,,,
NCI-H2228,0.476,0.479,0.522,0.55,0.231,0.241,0.169,0.14,,,,,,0.857,1.15,1.36,0.817,0.946
NCI-H2342,0.324,0.276,0.299,0.306,0.682,0.752,0.746,0.729,0.746,0.682,0.676,0.695,0.629,,,,,
SK-MES-1,0.343,0.358,0.427,0.301,0.609,0.736,0.97,0.709,0.362,0.494,0.353,0.427,0.337,,,,,
SW 900,0.856,0.445,0.658,0.509,0.175,0.153,0.172,0.17,0.451,0.485,0.462,0.419,0.449,,,,,
